This is an account of results in patent publication US20050113331A1, “Compositions and methods for use of antiviral drugs in the treatment of retroviral diseases resistant to nucleoside reverse transcriptase inhibitors” (priority 2003, published 2005).

For assay [1], the target named is TAM-mutant HIV-1 reverse transcriptase (UniProt P04585). Format: biochemical. The arrangement: AZT-terminated DNA that had undergone excision; other: 20 micromolar 218A, 3 mM ATP, after 10 minutes; 65% without bisp; other: 5 micromolar bisphosphonate, 3 mM ATP, after 10 min; 65% without. Particulars: for % Inhibition of AZT excision: BPH concentration not given. Here is the method: (§1) An 18 nucleotide DNA oligonucleotide (“primer DNA”) of sequence 5′-[…]-3′ was 5′ end labeled using [y^32p]-ATP and T4 polynucleotide kinase. The labeled primer DNA was purified by polyacrylamide gel electrophoresis, and then annealed to a synthetic DNA oligonucleotide (“template DNA”) of the sequence 5′-[…] […]-3′, to form “template/primer DNA”. Template/primer DNA was then chain-terminated with AZTMP by incubating for 30 minutes at 37° C. with HIV-1 reverse transcriptase in 50 mM Tris-HCl, pH 7.8, containing 60 mM KCl, 10 mM MgCl2, and 100 μM AZTTP. The total incubation sample was then dried under reduced pressure and the [^32P]-labeled, 3′-AZTMP-terminated primer DNA (now 19 nucleotides in length) was purified by polyacrylamide gel electrophoresis. The purified [^32P]-labeled, 3′-AZTMP-terminated primer DNA was annealed to template DNA to form the nucleic acid excision substrate (termed “AZTMP-T/P”).
(§2) At various times thereafter, aliquots were removed and quenched by dilution into sequencing gel loading buffer (98% deionized formamide, 10 mM EDTA, and 1 mg/mL each of bromophenol blue and xylene cyanol). Samples were heated at 100° C. for 5 minutes then subjected to polyacylamide gel electrophoresis using 16% polyacrylamide/7 M urea gels. Electrophoretically resolved products were visualized and quantified by phosphorimaging analysis.
(§3) The [^32P]-labeled, 3′-AZTMP-terminated nucleic acid excision substrate (“AZTMP-T/P”) is made as described in Example 2. […] After 10 minutes (for reactions with ATP) or 5 minutes (for reactions with sodium pyrophosphate), the reactions are stopped by the addition of 2 volumes of sequencing gel loading buffer (98% deionized formamide, 10 mM EDTA, and 1 mg/ml each of bromophenol blue and xylene cyanol). An identical control reaction in which RT is omitted is also carried out simultaneously. Samples are heated at 100° C. for 5 minutes then subjected to polyacylamide gel electrophoresis using 16% polyacrylamide/7 M urea gels. Electrophoretically resolved products are visualized and quantified by phosphorimaging analysis. The percent excision is defined by the amount of the 19 nucleotide [^32P]-labeled, 3′-AZTMP-terminated primer DNA in the sample divided by the amount of the 19 nucleotide [^32P]-labeled, 3′-AZTMP-terminated primer DNA in the control, multiplied by 100.

Assay [2] shares this target. Format: biochemical. Set-up: other: preferred BPH variants. Conditions: read-out: Estimated IC50; preferred BPH variants; quantity inhibited not given. The procedure: as §1, §2, §3
The test system of the next assay is AZT-resistant HIV-1. Nature of the assay: Antiviral activity against AZT-resistant HIV-1 in P4/R5 cells. Format: cell-based. The procedure: P4/R5 cells are plated in 96-well culture dishes at a cell density of 3×10^3 cells/well in 100 μl DMEM/10% fetal bovine serum. In one set of plates, bisphosphonate variants are added (25μM final concentration in FIG. 6) to individual wells. In another identical set of plates, bisphosphonate variants are added along with specific concentrations of AZT (0.1 μM final concentration in FIG. 6). Each well is inoculated with AZT-resistant HIV (multiplicity of infection=1), and the cells are incubated at 37° C. for 48 hours. The cells are then washed and the extent of HIV infection is determined fluorometrically. The percent inhibition of HIV replication is calculated as [1-(fluorescence signal of cells infected in the presence of bisphosphonate divided by the fluorescence signal of cells infected in the absence of any drug)] multiplied by 100.

A further assay relates to wild type HIV-1. Description: Antiviral activity against wild type HIV-1 in P4/R5 cells. It counts as cell-based. Conditions: Human immunodeficiency virus 1, compound alone, read-out: EC50 against replication.

Read-outs that look alike come from different tables or passages of the source.

Consider `O=C(O)P(=O)(O)O` [Foscarnet, phosphonoformic acid, reference compound], for which the “concentration dependence of inhibition of ATP-mediated excision of AZT” value in assay [1] (increasing concentration, FIG. 3) is given as “did not inhibit ATP-mediated excision of AZT as well as 218A”.
Turning to `O=P(O)(O)C(O)(Cc1cccc(C(F)(F)F)c1)P(=O)(O)O` [Compound 250A], in assay [2], the half-maximal inhibitory concentration (IC50) (as a rule, the midpoint of a concentration-inhibition curve) was 2.9 µM. Also, the “% Inhibition of AZT excision” value in assay [1] amounted to 68%.
For the molecule `O=P(O)(O)C(O)(Cc1cccc2ccccc12)P(=O)(O)O` [Compound 257A], the IC50 in assay [2] was 1.35 µM.
Consider `O=[N+]([O-])c1cccc(CC(O)(P(=O)(O)O)P(=O)(O)O)c1` [Compound 256A], for which the IC50 in assay [2] is 2.5 µM. Besides, in assay [1], the “% Inhibition of AZT excision” value is 66%.
Turning to `O=P(O)(O)C(O)(Cc1cccc(Br)c1)P(=O)(O)O` [Compound 255A], in assay [2], the IC50 was 1.8 µM. Further, the “% Inhibition of AZT excision” value in assay [1] was 76%.
`COCc1cccc(NC(P(=O)(O)O)P(=O)(O)O)c1` [Compound 281A]: the IC50 in assay [2] was 9.5 µM.
Regarding `O=P(O)(O)C(O)(Cc1cccc(I)c1)P(=O)(O)O` [Compound 251A], the IC50 in assay [2] is 3.4 µM.
Take `O=P(O)(O)C(Nc1cccc(Cc2ccccc2)c1)P(=O)(O)O` [Compound 262A]: the IC50 in assay [2] is 4.2 µM. For the same molecule, in assay [1], the “% Inhibition of AZT excision” value came out at 66%.
For `O=P(O)(O)C(CNc1cccc(-c2ccccc2)c1)P(=O)(O)O` [Compound 312A], the IC50 in assay [2] is 11.3 µM.
For `O=P(O)(O)C(Nc1cccc(-c2ccc(F)c(F)c2)c1)P(=O)(O)O` [Compound 327A], the IC50 in assay [2] is 2.1 µM.
On to `COc1ccc(-c2cccc(CC(O)(P(=O)(O)O)P(=O)(O)O)c2)cc1` [Compound 315A], for which, in assay [2], the IC50 is 2.4 µM.
As to `O=P(O)(O)C(Nc1cccc(Br)c1)P(=O)(O)O` [Compound 302A], the IC50 in assay [2] is 1 µM.
As for `O=P(O)(O)C(Nc1ccc(Cc2ccccc2)cc1)P(=O)(O)O` [Compound 332A], in assay [2], the half-maximal inhibitory concentration (IC50) is 3.5 µM.
In the case of `O=P(O)(O)C(Nc1cccc(-c2cc(F)cc(F)c2)c1)P(=O)(O)O` [Compound 317A], the half-inhibitory concentration (IC50) in assay [2] is 2.1 µM.
On to `CC(C)CCNCC(P(=O)(O)O)P(=O)(O)O` [Compound 311A], for which, in assay [2], the concentration for half-maximal inhibition (IC50) was 15.5 µM.
Turning to `O=P(O)(O)C(Nc1cccc(-c2ccc(F)cc2F)c1)P(=O)(O)O` [Compound 316A], the IC50 in assay [2] is 3.9 µM.
On to `Cc1cn([C@H]2C[C@H](N=[N+]=[N-])[C@@H](CO)O2)c(=O)[nH]c1=O` [AZT, 3′-azido-3′-deoxythymidine], for which the EC50 – broadly, the concentration that produces a half-maximal response – with AZT-resistant HIV-1 (Human immunodeficiency virus 1, P4/R5, read-out: EC50 of AZT in the presence of 218A) was above 0.025 µM; with AZT-resistant HIV-1 (Human immunodeficiency virus 1, compound alone, P4/R5 cells, read-out: EC50 against replication), around 1.2 µM; in the assay with wild type HIV-1, around 0.14 µM. Also, the inhibition (commonly the percentage by which the read-out fell short of the control) at 0.1 µM in the assay with AZT-resistant HIV-1 (Human immunodeficiency virus 1, P4/R5, 0.1 μM final concentration, alone, 48 hours, FIG. 6, read-out: percent inhibition of HIV replication) came to 2%.
Turning to `O=P(O)(O)C(Nc1cccc(CO)c1)P(=O)(O)O` [Compound 280A], in assay [2], the concentration for half-maximal inhibition (IC50) was 7.9 µM.
As to `CCn1c2ccccc2c2cc(NC(P(=O)(O)O)P(=O)(O)O)ccc21` [Compound 228A], in assay [2], the 50% inhibitory concentration (IC50) was 4.1 µM. Besides, in assay [1], the “% Inhibition of AZT excision” value stood at 60%.
Take `Cc1ccc(NC(P(=O)(O)O)P(=O)(O)O)cc1-c1ccccc1` [Compound 340A]: in assay [2], the IC50 was 5 µM.
Turning to `O=P(O)(O)C(O)(Cc1cccc(Oc2ccccc2)c1)P(=O)(O)O` [Compound 339A], the IC50 in assay [2] was 3.3 µM.
With `COc1ccc(-c2ccc(CC(O)(P(=O)(O)O)P(=O)(O)O)cc2)cc1` [Compound 333A], the half-inhibitory concentration (IC50) in assay [2] was 5.2 µM.
Turning to `O=P(O)(O)C(O)(Cc1ccc(-c2ccc(Cl)cc2)cc1)P(=O)(O)O` [Compound 326A], the IC50 in assay [2] was 3.9 µM.
Take `O=P(O)(O)C(O)(CC12CC3CC(CC(C3)C1)C2)P(=O)(O)O` [Compound 329A]: in assay [2], the IC50 is 4.6 µM.
Take `O=P(O)(O)C(O)(Cc1cccc(-c2ccc(Cl)cc2)c1)P(=O)(O)O` [Compound 314A]: in assay [2], the IC50 was 0.9 µM.
For `O=P(O)(O)C(Nc1ccc(Cl)cc1Cl)P(=O)(O)O` [Compound 244A], in assay [2], the IC50 was 8 µM.
Turning to `O=P(O)(O)C(CNc1ccc(-c2ccccc2)cc1)P(=O)(O)O` [Compound 331A], in assay [2], the IC50 was 4.6 µM.
Turning to `O=P(O)(O)C(Nc1ccc2c(c1)CCC2)P(=O)(O)O` [Compound 215A], the IC50 in assay [2] was 4.5 µM. For the same molecule, the “% Inhibition of AZT excision” value in assay [1] was found to be 75%.
In the case of `O=[N+]([O-])c1cccc(NC(P(=O)(O)O)P(=O)(O)O)c1` [Compound 304A], in assay [2], the half-inhibitory concentration (IC50) was 2.7 µM.
Turning to `O=P(O)(O)C(O)(Cc1cccc(I)c1)P(=O)(O)O` [Compound 279A], in assay [2], the IC50 was 1.1 µM.
For the molecule `O=P(O)(O)C(O)(Cc1cccc(Cl)c1)P(=O)(O)O` [Compound 253A], in assay [2], the concentration for half-maximal inhibition (IC50) is 3.1 µM. Also, the “% Inhibition of AZT excision” value in assay [1] stood at 70%.
For the molecule `O=P(O)(O)C(O)(Cc1cccc(-c2ccc(F)cc2)c1)P(=O)(O)O` [Compound 313A], in assay [2], the concentration for half-maximal inhibition (IC50) is 1.9 µM.
As for `O=P(O)(O)C(Cn1cnc2ccccc21)P(=O)(O)O` [Compound 298A], the half-inhibitory concentration (IC50) in assay [2] was 13.5 µM.
Take `O=P(O)(O)C(O)(Cc1cccc(-c2ccc(F)c(F)c2)c1)P(=O)(O)O` [Compound 336A]: the IC50 in assay [2] was 1 µM.
Take `O=P(O)(O)C(O)(Cc1cccc(-c2cc(F)ccc2F)c1)P(=O)(O)O` [Compound 334A]: in assay [2], the concentration for half-maximal inhibition (IC50) is 1.5 µM.
Turning to `O=P(O)(O)C(O)(Cc1ccc(-c2ccc(F)cc2)cc1)P(=O)(O)O` [Compound 325A], the IC50 in assay [2] is 2.9 µM.
As for `CN(C)Cc1cccc(CC(O)(P(=O)(O)O)P(=O)(O)O)c1` [Compound 289A], the IC50 in assay [2] is 8.3 µM.
For the molecule `COc1cccc(CC(O)(P(=O)(O)O)P(=O)(O)O)c1` [Compound 341A], the concentration for half-maximal inhibition (IC50) in assay [2] was 5.4 µM.
Same read-out and setting: for `O=P(O)(O)C(O)(Cc1ccc(Cl)c(Cl)c1)P(=O)(O)O` [Compound 342A] the value was 0.4 µM.
Take `CC(C)c1cccc(NC(P(=O)(O)O)P(=O)(O)O)c1` [Compound 248A]: in assay [2], the 50% inhibitory concentration (IC50) was 3.7 µM. Also, the “% Inhibition of AZT excision” value in assay [1] is 59%.
In the case of `O=P(O)(O)C(Nc1ccc(Br)cn1)P(=O)(O)O` [Compound 48B], the half-maximal inhibitory concentration (IC50) in assay [2] was 3.4 µM.
